From the NIST ThermoML archive (doi:10.1021/acs.jced.5b01082) come the findings set out here.

In general, viscosity refers to the internal friction of a fluid under shear. The term mass density denotes the mass of a sample divided by its volume.

Numbers after ± are expanded uncertainties.

The conditions of data set [1]: 101.33 kPa, Liquid; for viscosity: Cone and plate viscometry; for mass density: Vibrating tube method.
The nature of data set [2]: wn = mass fraction of the nth substance listed. Conditions: 100 kPa, Liquid; for viscosity: Cone and plate viscometry; for mass density: Vibrating tube method.

In the case of `CC(CC(C)(C)C)CP(=O)([O-])CC(C)CC(C)(C)C.CCCCCCCCCCCCCC[P+](CCCCCC)(CCCCCC)CCCCCC`, the figures for the viscosity in data set [1] (298.15 K), in data set [1] (310.15 K) and in data set [1] (318.15 K) were 999.6 ± 120 mPa·s, 482.6 ± 54 mPa·s and 316.7 ± 35 mPa·s, respectively. The mass density in data set [1] (298.15 K) is recorded as 884.09 ± 9.7 kg/m3; in data set [1] (310.15 K), 876.93 ± 9.6 kg/m3; in data set [1] (318.15 K) it was 872.2 ± 9.5 kg/m3.

Take `CC(CC(C)(C)C)CP(=O)([O-])CC(C)CC(C)(C)C.CCCCCCCCCCCCCC[P+](CCCCCC)(CCCCCC)CCCCCC` + O: the viscosity came to 142.4 ± 15 mPa·s in data set [2] (298.15 K, w2 = 0.151); 79.66 ± 8.2 mPa·s in data set [2] (310.15 K, w2 = 0.146); 55.58 ± 5.7 mPa·s in data set [2] (318.15 K, w2 = 0.142). Further, the mass density in data set [2] (298.15 K, w2 = 0.151) is listed as 909.07 ± 9.6 kg/m3; in data set [2] (310.15 K, w2 = 0.146) it was 900.11 ± 9.5 kg/m3; in data set [2] (318.15 K, w2 = 0.142), 893.78 ± 9.4 kg/m3.
